# Measured values from ChEMBL document CHEMBL1201862, “PubChem BioAssay data set” (2004).
#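 Protocol summary: plate cells (96-well), add compound at 5 concentrations, incubate 48 h, interpolate endpoints linearly. Abbreviation: GI50, concentration required for 50% inhibition of growth.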 Activity calls are given as the source filed them. Rule as the data show it: active = GI50 up to about 1.1 µM and inactive = higher.
# Tests used:
# Assay in all cases: NCI-60 cell line screen, 48 h
# [1] = tested on: OVCAR-3
# [2] = tested on: IGROV-1
# [3] = tested on: TK-10
# [4] = tested on: M14
# [5] = tested on: MDA-MB-231
# [6] = tested on: HCC 2998
# [7] = tested on: T47D
# [8] = tested on: DU-145
# [9] = tested on: SN12C
# [10] = tested on: MDA-N
# [11] = tested on: SK-MEL-5
# [12] = tested on: OVCAR-8
# [13] = tested on: RPMI-8226
# [14] = tested on: BT-549
# [15] = tested on: SF-268
# [16] = tested on: RXF 393
# [17] = tested on: Malme-3M
# [18] = tested on: SNB-75
# [19] = tested on: HOP-62
# [20] = tested on: NCI-H460
# [21] = tested on: EKVX
# [22] = tested on: HL-60
# [23] = tested on: CAKI-1
# [24] = tested on: NCI/ADR-RES
# [25] = tested on: K562
# [26] = tested on: U-251
# [27] = tested on: 786-0
# [28] = tested on: Hs-578T
# [29] = tested on: OVCAR-4
# [30] = tested on: UO-31
# [31] = tested on: HOP-92
# [32] = tested on: COLO 205
# [33] = tested on: SK-OV-3
# [34] = tested on: UACC-62
# [35] = tested on: HCT-116
# [36] = tested on: SK-MEL-28
# [37] = tested on: MOLT-4
# [38] = tested on: NCI-H23
# [39] = tested on: SNB-19
# [40] = tested on: KM12
# [41] = tested on: LOX IMVI
# [42] = tested on: SR
# [43] = tested on: NCI-H522
# [44] = tested on: UACC-257
# [45] = tested on: SW-620
# [46] = tested on: MDA-MB-435
# [47] = tested on: PC-3
# [48] = tested on: HCT-15
# [49] = tested on: NCI-H226
# [50] = tested on: A498
# [51] = tested on: SF-295
# [52] = tested on: SK-MEL-2
# [53] = tested on: ACHN
# [54] = tested on: CCRF-CEM
# [55] = tested on: A549
# [56] = tested on: HT-29
smiles,measurement,setting,value
Nc1ccc(-c2nc3ccccc3s2)cc1CO,GI50,[1],> 100 µM (inactive)
same,GI50,[2],> 68.5 µM (inactive)
same,GI50,[3],> 100 µM (inactive)
same,GI50,[4],64.6 µM (inactive)
same,GI50,[5],> 70 µM (inactive)
same,GI50,[6],> 100 µM (inactive)
same,GI50,[7],33.2 µM (inactive)
same,GI50,[8],> 94.8 µM (inactive)
same,GI50,[9],45.8 µM (inactive)
same,GI50,[10],> 86.3 µM (inactive)
same,GI50,[11],49.4 µM (inactive)
same,GI50,[12],> 77.6 µM (inactive)
same,GI50,[13],49.1 µM (inactive)
same,GI50,[14],47.3 µM (inactive)
same,GI50,[15],> 73.5 µM (inactive)
same,GI50,[16],> 100 µM (inactive)
same,GI50,[17],> 100 µM (inactive)
same,GI50,[18],> 100 µM (inactive)
same,GI50,[19],31.5 µM (inactive)
same,GI50,[20],68.4 µM (inactive)
same,GI50,[21],7.46 µM (inactive)
same,GI50,[22],39 µM (inactive)
same,GI50,[23],2.9 µM (inactive)
same,GI50,[24],> 79.8 µM (inactive)
same,GI50,[25],6.05 µM (inactive)
same,GI50,[26],> 76.4 µM (inactive)
same,GI50,[27],> 100 µM (inactive)
same,GI50,[28],> 83.6 µM (inactive)
same,GI50,[29],> 39.2 µM (inactive)
same,GI50,[30],10.5 µM (inactive)
same,GI50,[31],> 54.8 µM (inactive)
same,GI50,[32],> 100 µM (inactive)
same,GI50,[33],> 100 µM (inactive)
same,GI50,[34],6.79 µM (inactive)
same,GI50,[35],74.6 µM (inactive)
same,GI50,[36],> 100 µM (inactive)
same,GI50,[37],16.5 µM (inactive)
same,GI50,[38],60.5 µM (inactive)
same,GI50,[39],50.6 µM (inactive)
same,GI50,[40],41.7 µM (inactive)
same,GI50,[41],84.3 µM (inactive)
same,GI50,[42],> 84.3 µM (inactive)
same,GI50,[43],52.8 µM (inactive)
same,GI50,[44],> 87.7 µM (inactive)
same,GI50,[45],> 100 µM (inactive)
same,GI50,[46],> 87.5 µM (inactive)
same,GI50,[47],66.8 µM (inactive)
same,GI50,[48],61.8 µM
same,GI50,[49],< 0.01 µM (active)
same,GI50,[50],< 0.01 µM (active)
same,GI50,[51],36.5 µM (inactive)
same,GI50,[52],> 85.7 µM (inactive)
same,GI50,[53],13.5 µM (inactive)
same,GI50,[54],> 51.2 µM (inactive)
same,GI50,[55],> 58.7 µM (inactive)
same,GI50,[56],> 100 µM (inactive)
